Measurements: patent publication US20260083864A1, “CONTRAST AGENTS FOR USE IN DIAGNOSTIC COMPUTED TOMOGRAPHY IMAGING” (Bayer Aktiengesellschaft, priority 2022, published 2026)

Assays:
[1] = Water solubility in aqueous buffer; conditions: aqueous buffer 10 mM Tris-HCl, pH 7.4, 20° C.
Method: The solid compounds were added stepwise to the buffer solution. More substance is added once all the suspended material is dissolved until an equilibrium between undissolved and dissolved substance is reached. The suspension was mixed using a shaker (Heidolph Reax 2000) and treated 5 min in an ultrasound bath (Bandelin, Sonorex Super RK255H).

[2] = Relaxivity measurements at 1.41 T in water; assay type: physicochemical; conditions: 37° C., normalized to Gd
Method: Relaxivity measurements at 1.41 T were performed using a MiniSpec mq60 spectrometer (Bruker Analytik, Karlsruhe, Germany) operating at a resonance frequency of 60 MHz and a temperature of 37° C. The T1 relaxation times were determined using the standard inversion recovery (IR) method with a fixed relaxation delay of at least 5×T1. The variable inversion time (TI) was calculated automatically by the standard software of the MiniSpec mq60 (8 steps). The T2 measurements were performed by using a Carr-Purcell-Meiboom-Gill (CPMG) pulse sequence, applying a relaxation delay of at least 5×T1.
Each relaxivity measurement was performed using three different Gd concentrations (3 concentrations between 0.05 and 2 mM). […] Human plasma preparation: For each experiment fresh blood was taken from a volunteer using 10 mL citrate-tubes (Sarstedt S-Monovette 02.1067.001, 10 mL, Citrate). The 10 mL citrate-tubes were carefully inverted 10 times to mix blood and anticoagulant and centrifuged for 15 min at 1811 g at RT (Eppendorf, Centrifuge 5810R).
(§1) The relaxivities n (where i=1, 2) were calculated based on the measured relaxation rates Ri in water and plasma: […]

[3] = Relaxivity measurements at 1.41 T in human plasma; assay type: physicochemical; conditions: 37° C., normalized to Gd
Method: The T1 relaxation times were determined using the standard inversion recovery (IR) method with a fixed relaxation delay of at least 5×T1. The variable inversion time (TI) was calculated automatically by the standard software of the MiniSpec mq60 (8 steps). The T2 measurements were performed by using a Carr-Purcell-Meiboom-Gill (CPMG) pulse sequence, applying a relaxation delay of at least 5×T1.
Each relaxivity measurement was performed using three different Gd concentrations (3 concentrations between 0.05 and 2 mM).
as §1

OATP1B1 = target: T1, OATP1B1 (Homo sapiens, UniProt Q9Y6L6); assay: Uptake into stable transfected OATP1B1 HEK 293 cells; assay type: cell-based; conditions: for Uptake into OATP1B1-HEK 293 cells: 40 min incubation, relative to RC1 (Gd-EOB-DTPA); for Inhibition Rifampicine: uptake into OATP1B1-HEK 293 cells
T1 sequence (Q9Y6L6 1-691): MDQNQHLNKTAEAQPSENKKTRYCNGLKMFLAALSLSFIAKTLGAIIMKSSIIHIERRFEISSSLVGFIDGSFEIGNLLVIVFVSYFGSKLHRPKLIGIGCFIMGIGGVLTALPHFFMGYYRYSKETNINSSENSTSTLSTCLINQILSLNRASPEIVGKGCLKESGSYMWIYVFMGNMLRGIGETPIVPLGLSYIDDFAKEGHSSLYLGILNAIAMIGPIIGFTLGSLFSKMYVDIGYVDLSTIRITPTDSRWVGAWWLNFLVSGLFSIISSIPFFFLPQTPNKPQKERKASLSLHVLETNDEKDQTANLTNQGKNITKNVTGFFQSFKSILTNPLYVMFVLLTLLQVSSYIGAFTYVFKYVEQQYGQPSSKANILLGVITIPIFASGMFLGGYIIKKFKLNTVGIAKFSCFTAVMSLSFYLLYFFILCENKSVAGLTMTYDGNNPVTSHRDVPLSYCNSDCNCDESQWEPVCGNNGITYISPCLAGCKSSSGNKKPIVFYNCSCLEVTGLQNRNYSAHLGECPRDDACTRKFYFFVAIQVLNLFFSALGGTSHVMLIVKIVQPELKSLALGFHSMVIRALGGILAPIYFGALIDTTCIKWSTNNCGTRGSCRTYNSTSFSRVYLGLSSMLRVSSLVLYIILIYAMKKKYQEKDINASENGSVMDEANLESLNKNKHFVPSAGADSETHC
Method: (§2) Cryopreserved cells were shortly thawed in water bath and diluted in 10 mL warm culture medium (37° C.). After medium change the cells were grown for 3d in a 25 cm^2 cell culture flask. After 3 to 5d the cells were transferred into 75 cm^2 flasks. […] All test items were prepared in transport buffer at a final concentration of 100 M from stock solutions (180 to 500 mM concentration). The OATP1B1 HEK 293 cells were incubated with test solutions (test item in transport buffer 500 L) for 40 min on a thermoshaker without shaking (PHMP, Fa. Grant Bio). Triplicates were performed for each test item. After incubation the cells were washed with 2 mL of cold PBS (+) buffer (Dulbeccos PBS+, Fa. Gibco). […] As a reference standard Gd-EOB-DTPA (gadoxetate) is used in the same well plate.

OATP1B3 = target: T2, OATP1B3 (Homo sapiens, UniProt Q9NPD5); assay: Uptake into stable transfected OATP1B3 HEK 293 cells; assay type: cell-based; conditions: for Uptake into OATP1B3-HEK 293 cells: 40 min incubation, relative to RC1 (Gd-EOB-DTPA); for Inhibition Rifampicine: uptake into OATP1B3-HEK 293 cells
T2 sequence (Q9NPD5 1-702): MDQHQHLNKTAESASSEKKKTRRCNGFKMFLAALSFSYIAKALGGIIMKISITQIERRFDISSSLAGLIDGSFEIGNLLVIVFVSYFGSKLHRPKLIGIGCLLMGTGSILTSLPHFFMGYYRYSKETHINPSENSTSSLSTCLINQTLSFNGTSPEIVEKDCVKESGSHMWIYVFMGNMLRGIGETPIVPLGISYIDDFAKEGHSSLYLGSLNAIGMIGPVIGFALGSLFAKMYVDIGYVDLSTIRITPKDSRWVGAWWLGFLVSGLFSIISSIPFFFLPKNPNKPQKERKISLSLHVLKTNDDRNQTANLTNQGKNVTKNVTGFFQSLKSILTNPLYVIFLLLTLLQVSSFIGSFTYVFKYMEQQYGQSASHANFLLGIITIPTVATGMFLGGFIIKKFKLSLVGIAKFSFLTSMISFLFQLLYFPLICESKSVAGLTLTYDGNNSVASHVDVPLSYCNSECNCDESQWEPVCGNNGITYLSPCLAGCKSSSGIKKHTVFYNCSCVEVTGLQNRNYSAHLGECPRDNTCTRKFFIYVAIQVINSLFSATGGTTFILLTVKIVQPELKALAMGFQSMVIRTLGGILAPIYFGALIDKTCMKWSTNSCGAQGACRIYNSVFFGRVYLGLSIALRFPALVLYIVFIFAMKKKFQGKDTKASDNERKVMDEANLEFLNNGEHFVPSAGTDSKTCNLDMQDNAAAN
Method: as §2, with “100 µM” for “100 M”, “The OATP1B3” for “The OATP1B1”, “500 μL)” for “500 L)”

[4] = Partition coefficient (log P butanol/buffer); assay type: physicochemical; conditions: 1-butanol / 50 mM Tris-HCl, pH 7.4, room temperature
[5] = test system: freshly isolated rat hepatocytes; assay: Uptake into freshly isolated rat hepatocytes; conditions: for Uptake rat hepatocytes: 100 μmol Gd/L, 10 min, 37° C., relative to RC1 (Gd-EOB-DTPA); for Inhibition Rifampicine: rat hepatocyte uptake, test item and Rifampicine 1:1, each 100 μM
Method: After incubation the adherent hepatocytes were washed once with 37° C. Hepes carbonate transport buffer (500 μL/well). The test items and RC1 were prepared from stock solutions (180 to 500 mM concentration) in Hepes carbonate transport buffer at pH 7.4 to reach a final concentration of 100 μmol Gd/L. The specific uptake of the test item or RC1 into rat hepatocytes via OATP1B1 and OATP1B3 was challenged using a known OATP1B1/1B3 inhibitor (Rifampicine, Fa. Sigma R3501, test item and inhibitor 1:1 each 100 μM final concentration). The prepared rat hepatocyte plates were incubated with test solutions (500 μL/well) at 37° C. for 10 min using a thermoshaker (Fa. Grant Bio, PHMP). Triplicates were performed for each test item. After incubating the cells were washed once with cold PBS buffer (Fa. Gibco, Dulbeccos PBS (+)). After washing the intact hepatocytes were lysed by addition of 500 μL cold 0.01% Triton-X 100 in Millipore water for 1 h. […] As a reference standard RC1 is used in the same well plate. The hepatocyte uptake of the test compound is calculated relative to RC1 (resulting in the unit % of RC1).

Compound	Solubility [1]	r1 water [2]	r1 human plasma [3]	Uptake into OATP1B1-HEK 293 cells (OATP1B1)	Inhibition Rifampicine (OATP1B1)	Uptake into OATP1B3-HEK 293 cells (OATP1B3)	Inhibition Rifampicine (OATP1B3)	Log P (partition coefficient butanol/buffer) [4]	Uptake rat hepatocytes [5]	Inhibition Rifampicine [5]
O=C([O-])CN1CCN(C(Cc2ccc(OCC(F)(F)C(F)F)cc2)C(=O)O)CCN(CC(=O)[O-])CCN([C@@H](CO)C(=O)[O-])CC1.[Gd+3] (mixture of isomers) [Example 33, gadolinium (2S)-2-[4,10-bis(carboxylatomethyl)-7-{1-carboxy-2-[4-(2,2,3,3-tetrafluoropropoxy)phenyl]ethyl}-1,4,7,10-tetraazacyclododecan-1-yl]-3-hydroxypropanoate]	>29 mM	4.2 L/mmol/s	11.7 L/mmol/s	367 % of RC1	88 % inhibition	71 % of RC1	98 % inhibition	−0.55	82 % of RC1	94 % inhibition
CCOCCOCCOc1ccc(CCC[C@@H](C(=O)O)N2CCN(C(CO)C(=O)[O-])CCN(C(CO)C(=O)[O-])CCN(C(CO)C(=O)[O-])CC2)cc1.[Gd+3] (mixture of isomers) [Example 21, gadolinium-2,2′,2″-{10-[(1S)-1-carboxy-4-{4-[2-(2-ethoxyethoxy)ethoxy]phenyl}butyl]-1,4,7,10-tetraazacyclododecane-1,4,7-triyl}tris(3-hydroxypropanoate)]	>368 mM	5.4 L/mmol/s	8.5 L/mmol/s		75 % inhibition		94 % inhibition	−1.03	81 % of RC1	91 % inhibition
CCCOc1ccc(CCC(C(=O)O)N2CCN(CC(=O)[O-])CCN(CC(=O)[O-])CCN(CC(=O)[O-])CC2)cc1.[Gd+3] (stereo not shown) [Example 24, gadolinium 2,2′,2″-{10-[1-carboxy-3-(4-propoxyphenyl)propyl]-1,4,7,10-tetraazacyclododecane-1,4,7-triyl}triacetate]	>261 mM	4.1 L/mmol/s	8.8 L/mmol/s	229 % of RC1	87 % inhibition	17 % of RC1	94 % inhibition	−0.71	40 % of RC1	96 % inhibition
CCCCOc1ccc(CC(C(=O)O)N2CCN(CC(=O)[O-])CCN(CC(=O)[O-])CCN(CC(=O)[O-])CC2)cc1.[Gd+3] (stereo not shown) [Example 14, gadolinium 2,2′,2″-{10-[2-(4-butoxyphenyl)-1-carboxyethyl]-1,4,7,10-tetraazacyclododecane-1,4,7-triyl}triacetate]	5 mM	4.3 L/mmol/s	13.3 L/mmol/s	856 % of RC1	98 % inhibition	69 % of RC1	97 % inhibition	−0.38	96 % of RC1	98 % inhibition
CCOCCOCCOc1ccc(CCC[C@@H](C(=O)O)N2CCN([C@H](CO)C(=O)[O-])CCN([C@H](CO)C(=O)[O-])CCN([C@H](CO)C(=O)[O-])CC2)cc1.[Gd+3] [Example 20, gadolinium (2R,2′R,2″R)-2,2′,2″-{10-[(1S)-1-carboxy-4-{4-[2-(2-ethoxyethoxy)ethoxy]phenyl}butyl]-1,4,7,10-tetraazacyclododecane-1,4,7-triyl}tris(3-hydroxypropanoate)]	>381 mM	5.6 L/mmol/s	9.8 L/mmol/s		87 % inhibition		99 % inhibition	−1.11	71 % of RC1	91 % inhibition
